Source: US11578055B2, “Triazacyclododecansulfonamide (“TCD”)-based protein secretion inhibitors” (KEZAR LIFE SCIENCES, priority 2018, dated 2023)
Structures can show the parent of a compound that is named as a salt. Where two headings read alike, the source gives them in different places.

Key:
[1] = In Vitro Microsome Stability Assay (human); type: in vitro ADME; settings: human, 30 min, NADPH
Description: (§1) Potassium phosphate (423 μL of a 0.1 M solution) was added to 8-strip deep well tubes followed by human, mouse, rat, or monkey microsomes (25 μL of a 20 mg/mL solution). The tubes were then placed on ice and the test article (2 μL of a 0.25 mM solution in DMSO) was added. The mixture was preincubated at 37° C. for 3 to 5 minutes (shaking at 150 rpm) then the reaction was initiated by adding 50 μL NADPH. An aliquot of samples (100 μL) were collected at 0 and 30 min and 200 μL of an acetonitrile mixture containing IS (compound 914) was added to quench the reaction. After centrifuging for 10 min at 4000 rpm, a mixed solution of the 20 μL of the supernatant (20 μL) plus 100 μL ACN/H2O (1:1) were injected for LC-MS/MS analysis. Liver microsome stability is assessed by the % remaining of compound at 30 min which is calculated using the following equation: [(AUCanalyteT=30/AUCIS)/(AUCanalyteT=0/AUCIS)]*100
(§2) For chemical structures that include one or more stereoisomers, but are illustrated without indicating stereochemistry, the assay data refers to a mixture of stereoisomers.

[2] = test system: PD1 signal sequence plus 10 amino acids fused to Gaussia Luciferase (PD1-ss+10aa/Gaussia Luciferase); test: Dox Induced PD1-ss-Gluc Assay; type: cell-based; settings: 24 hr, 293FRT/TO; read-out: 24 hr Dox Inducible PD1ssGluc 293FRT/TO: Mean IC50
Source text: FIp-In 293 T-REx™ cells were transfected with pcDNA™5/FRT/TO plasmid inserted with cDNA encoding Gaussia Luciferase fused to the 3′ end of cDNA encoding PD1 signal sequence plus 10 amino acids (N-[…]-C) (SEQ ID NO: 1). Transfected cells were selected for resistance to the selectable markers Hygromycin and Blasticidin to create a stable cell line that contained the PD1-ss+10aa/Gaussia Luciferase cDNA insert whose expression was regulated under the T-REx™ system. The day before assay, cells were trypsinized and plated in 384-well tissue culture plates. The next day, compound dilutions in DMSO/media containing doxycycline were added to the wells and incubated at 37° C., 5% CO2.
as §2

[3] = In Vitro Microsome Stability Assay (mouse); type: in vitro ADME; settings: mouse, 30 min, NADPH
Description: as §1, §2

[4] = test system: multiple myeloma cell line U266B1; test: U266 Cell Viability Assay; type: cell-based, human; settings: 48 hr
Description: (§3) The human multiple myeloma cell line U266B1 was cultured in RPMI 1640 media supplemented with 10% fetal bovine serum, 2 mM Glutamine, and 1× Penicillin/Streptomycin. Cells were plated in 384-well tissue culture plates and treated with compound dilutions in DMSO/media. Plates were incubated at 37° C., 5% CO2 for 48 hours. After 48 hours, Celltiter-Glo® (Promega) was added to each well and luciferase signal was quantified using Tecan Infinite M1000 Pro for cell viability determination.
For chemical structures that include one or more stereoisomers, but are illustrated without indicating stereochemistry, the assay data refers to a mixture of stereoisomers

[5] = In Vitro Microsome Stability Assay (monkey); type: in vitro ADME; settings: monkey, 30 min, NADPH
Description: as §1, §2

[6] = test system: full length TNFα (amino acids 1-233) fused to Gaussia Luciferase; test: Dox Induced TNFα-FL-Gluc Assay; type: cell-based; settings: 24 hr, 293FRT/TO; read-out: 24 hr Dox Inducible TNFaFLGluc 293FRT/TO: Mean IC50
Source text: FIp-In 293 T-REx™ cells were transfected with pcDNA™5/FRT/TO plasmid inserted with cDNA encoding Gaussia Luciferase fused to the 3′ end of cDNA encoding full length TNFα (amino acids 1-233). Transfected cells were selected for resistance to the selectable markers Hygromycin and Blasticidin to create a stable cell line that contained the TNFα-FL/Gaussia Luciferase cDNA insert whose expression was regulated under the T-REx™ system. The day before assay, cells were trypsinized and plated in 384-well tissue culture plates. The next day, compound dilutions in DMSO/media containing doxycycline were added to the wells and incubated at 37° C., 5% CO2.
as §2

[7] = In Vitro Microsome Stability Assay (rat); type: in vitro ADME; settings: rat, 30 min, NADPH
Description: as §1, §2

[8] = test system: multiple myeloma cell line NCl-H929; test: H929 Cell Viability Assay; type: cell-based, human
Description: as §3, with “NCl-H929” for “U266B1”, “cultured in Advanced RPMI 1640 media (Gibco®) supplemented with 6% fetal bovine serum, 2 mM Glutamine, and 1× Penicillin/Streptomycin. On the day of assay, cells were resuspended” for “cultured”, “Penicillin/Streptmycin and” for “Penicillin/Streptomycin. Cells were”
as §2

[9] = Homo sapiens, U-266, U266, read-out: 48 hr U266 Viability Celltiter-Glo: Mean EC50
[10] = 48 hr, H929, read-out: 48 hr H929 Viability Celltiter-Glo: Mean EC50
[11] = Homo sapiens, NCI-H929, 48 h, H929, read-out: 48 hr H929 Viability Celltiter-Glo: Mean EC50

SMILES | Liver Microsome Stability-% Left after 30 min w/ NADPH (%) Human [1] | IC50 [2] | Liver Microsome Stability-% Left after 30 min w/ NADPH (%) Mouse [3] | EC50 [4, 9] | Liver Microsome Stability-% Left after 30 min w/ NADPH (%) Monkey [5] | IC50 [6] | Liver Microsome Stability-% Left after 30 min w/ NADPH (%) Rat [7] | EC50 [8, 10] | EC50 [8, 11] | EC50 ([4]; U266, read-out: 48 hr U266 Viability Celltiter-Glo: Mean EC50) | EC50 ([4]; Homo sapiens, U-266, U266, Celltiter-Glo) | EC50 ([8]; Homo sapiens, NCI-H929, 48 h, H929, Celltiter-Glo)
C=C1CN(S(=O)(=O)c2ccc(C)cc2)CCCN(CC2CCCCC2)CCCN(S(=O)(=O)C2CCCCC2)C1 [A5] | 0.24% | 0.651 µM | 0.27% | > 25 µM | 0.31% | > 25 µM | 0.24% | 8.43 µM | – | – | – | –
C=C1CN(S(=O)(=O)CC)CCCN(CC2CCCCC2)CCCN(S(=O)(=O)c2ccc(C)cc2)C1 [A6, 9-(cyclohexylmethyl)-1-(ethanesulfonyl)-5-(4-methylbenzenesulfonyl)-3-methylidene-1,5,9-triazacyclododecane] | 0.53% | 4.75 µM | 0.12% | > 25 µM | 0.44% | > 25 µM | 0.17% | – | 24.1 µM | – | – | –
C=C1CN(S(=O)(=O)c2ccc(C)cc2)CCCN(CC2CCCCC2)CCCN(S(=O)(=O)C(C)C)C1 [A7, 9-(cyclohexylmethyl)-1-(4-methylbenzenesulfonyl)-3-methylidene-5-(propane-2-sulfonyl)-1,5,9-triazacyclododecane] | 0.29% | 2.31 µM | 0.17% | > 25 µM | 0.99% | > 25 µM | 0.23% | – | 22.4 µM | – | – | –
C=C1CN(S(=O)(=O)c2ccc(C)cc2)CCCN(CC2CCCCC2)CCCN(S(=O)(=O)C2CCCCC2)C1 [A8, 1-(cyclohexanesulfonyl)-9-(cyclohexylmethyl)-5-(4-methylbenzenesulfonyl)-3-methylidene-1,5,9-triazacyclododecane] | 0.09% | 2.68 µM | 0.17% | – | 0.19% | > 25 µM | 0.61% | > 25 µM | – | > 25 µM | – | –
C=C1CN(S(=O)(=O)c2ccc(C)cc2)CCCN(CC2CCOCC2)CCCN(S(=O)(=O)c2ccc(N(C)C)cc2)C1 [A9, N,N-dimethyl-4-{[5-(4-methylbenzenesulfonyl)-3-methylidene-9-[(oxan-4-yl)methyl]-1,5,9-triazacyclododecan-1-yl]sulfonyl}aniline] | 0.09% | 1.11 µM | 0.34% | > 25 µM | 0.66% | > 25 µM | 0.14% | – | > 25 µM | – | – | –
C=C1CN(S(=O)(=O)c2ccc(C)cc2)CCCN(CC2CCC(C)(C)CC2)CCCN(S(=O)(=O)c2ccc(N(C)C)cc2)C1 [A10, 4-((9-((4,4-dimethylcyclohexyl)methyl)-3-methylene-5-tosyl-1,5,9-triazacyclododecan-1-yl)sulfonyl)-N,N-dimethylaniline hydrochloride] | 0.77% | 0.123 µM | 0.2% | > 25 µM | 0.14% | 4.69 µM | 8.85% | – | 2.86 µM | – | – | –
C=C1CN(S(=O)(=O)c2ccc(C)cc2)CCCN(C(=O)OCCC)CCCN(S(=O)(=O)c2ccc(N(C)C)cc2)C1 [A12, propyl 5-((4-(dimethylamino)phenyl)sulfonyl)-7-methylene-9-tosyl-1,5,9-triazacyclododecane-1-carboxylate] | 0.11% | 0.858 µM | 0.1% | > 25 µM | 0.22% | > 25 µM | 0.07% | – | > 25 µM | – | – | –

Further lines, results first:

Liver Microsome Stability-% Left after 30 min w/ NADPH (%) Human [1] | IC50 [2] | Liver Microsome Stability-% Left after 30 min w/ NADPH (%) Mouse [3] | EC50 [4, 9] | Liver Microsome Stability-% Left after 30 min w/ NADPH (%) Monkey [5] | IC50 [6] | Liver Microsome Stability-% Left after 30 min w/ NADPH (%) Rat [7] | EC50 [8, 10] | EC50 [8, 11] | EC50 ([4]; U266, read-out: 48 hr U266 Viability Celltiter-Glo: Mean EC50) | EC50 ([4]; Homo sapiens, U-266, U266, Celltiter-Glo) | EC50 ([8]; Homo sapiens, NCI-H929, 48 h, H929, Celltiter-Glo) | SMILES
0.65% | 0.025 µM | 0.04% | > 25 µM | 0.1% | 1.47 µM | 0.1% | – | 0.987 µM | – | – | – | C=C1CN(S(=O)(=O)c2ccc(N(C)C)cc2)CCCN(CC2CCCCC2)CCCN(S(=O)(=O)N2CCCCC2)C1 [A13, 4-{[9-(cyclohexylmethyl)-3-methylidene-5-(piperidine-1-sulfonyl)-1,5,9-triazacyclododecan-1-yl]sulfonyl}-N,N-dimethylaniline]
0.11% | 0.108 µM | 2.09% | > 25 µM | 41.1% | 6.34 µM | 2.62% | – | 4.98 µM | – | – | – | C=C1CN(S(=O)(=O)c2ccc(N(C)C)cc2)CCCN(CC2CCCCC2)CCCN(S(=O)(=O)N(C)C)C1 [A16, 9-(cyclohexylmethyl)-5-[4-(dimethylamino)benzenesulfonyl]-N,N-dimethyl-3-methylidene-1,5,9-triazacyclododecane-1-sulfonamide]
– | 5.25 µM | 0.06% | > 25 µM | 0.06% | > 25 µM | 0.14% | – | 10.4 µM | – | – | – | CN(C)c1ccc(S(=O)(=O)N2CCCN(CC3CCCCC3)CCCN(S(=O)(=O)N3CCC(O)CC3)CC3(CC3)C2)cc1 [A28, 1-{[9-(cyclohexylmethyl)-13-[4-(dimethylamino)benzenesulfonyl]-5,9,13-triazaspiro[2.11]tetradecan-5-yl]sulfonyl}piperidin-4-ol]
– | – | – | – | – | – | – | – | – | – | > 25 µM | 3.11 µM | COc1ccc(F)cc1N1CCN(S(=O)(=O)N2CCCN(CC3CCCCC3)CCCN(S(=O)(=O)c3ccc(N(C)C)cc3)C[C@H](C)C2)CC1 [A176]
